Data reported in EP0501713B1, “Optically active aminoketone derivative and method for preparing same” (MITSUI TOATSU CHEMICALS, Inc., priority 1991, dated 1992).

How the values were obtained:
[1] = tested on: decerebrate rigidity induced by radio frequency lesions of rat brains; experiment: Decerebrate rigidity remission action (method of Ono et al.); type: in vivo, Wistar male rat; conditions: i.v., tension before administration = 100%
Text: Pharmacol., 18, 57 (1987)], the rigidity remission action of the optically active aminoketone derivative of the present invention for the decerebrate rigidity induced by radio frequency lesions of rat brains was investigated.
Each Wistar male rat (body weight: 300-400 g) was anesthetized with ether and then fixed on a stereotaxic apparatus. In accordance with the Pellegrino's stereotaxic brain atlas, the electrodes of a lesion generator (manufactured by Radionics Company) were punctuated to AP: 0, L: ±1.5, V: -3. […] The rigidified rat was fixed in the abdominal position, and the tension of each extension reflex of the extensor of the hind limbs was recorded. Assuming that the tension before the administration was 100%, the rate of rigidity inhibition is expressed in terms of percentage: (100 -(Tension after administration)/(Tension before administration)× 100) [formula]
The test compounds were intravenously administered at 3 and 6 mg/kg.

[2] = tested on: skeletal muscle afferent discharge; experiment: Action to skeletal muscle afferent discharge (musculus triceps surae nerve fiber); type: in vivo, Wistar rats; conditions: i.v., rat, discharge frequency before administration = 100%, tension of 20 g
Text: The musculus triceps surae was separated from each of Wistar rats (9 to 10 weeks old; Japanese rats) under a mixed anesthetic of urethane and α-chlorarose. There were cut out all the branches of the sciatic nerve except the branch which controls the musculus triceps surae. The medulla spinalis was subjected to laminectomy, and roots of L6 or less were cut out. […] A nerve fiber coming from the musculus triceps surae was only separated from the L5 posterior root. A tension of 20 g was applied to the peripheral end of the musculus triceps surae, and each discharge frequency of the nerve was recorded. Assuming that the discharge frequency before the administration is 100%, the discharge frequency of the nerve was expressed in terms of percentage: (100 -(Discharge frequency at most inhibition)/(Discharge frequency before administration)× 100) [formula]
The test compounds were intravenously administered at 6 and 12 mg/kg.

[3] = tested on: ddy Male mice; experiment: Acute toxicity; type: in vivo; conditions: intraperitoneally administered; mice observed 72 hours later; 4320 min
Protocol: (§1) ddy Male mice (body weights: 25-30 g) were used. Each test compound was intraperitoneally administered, and 72 hours later, the mice were observed as to whether they were alive or dead.
(§2) 50% lethal doses LD50 (mg/kg) were calculated.

[4] = Acute toxicity; type: in vivo; conditions: mouse, in vivo, ip, intraperitoneally administered; mice observed 72 hours later
Protocol: as §1, §2

| Structure (SMILES) | Rigidity Inhibition (%) ([1]; 3 mg/kg) | Rigidity Inhibition (%) ([1]; 6 mg/kg) | Discharge Frequency (%) ([2]; 6 mg/kg) | LD50 [3] [mg/kg] | Discharge Frequency (%) ([2]; 12 mg/kg) | LD50 at 72 h [4] [mg/kg] |
| --- | --- | --- | --- | --- | --- | --- |
| CCC(CN1CCCC1)C(=O)c1cc(-c2ccccc2)no1 (single isomer, unassigned; (-)) [(-) form, (-)-3-phenyl-5-[2-(1-pyrrolidinylmethyl)butyryl]isoxazole] | 33 | 53 | 83 | 760 | – | – |
| CCC(CN1CCCC1)C(=O)c1cc(-c2ccccc2)no1 (racemic) [racemic form, 3-phenyl-5-[2-(1-pyrrolidinylmethyl)butyryl]isoxazole, reference compound] | 56 | 65 | 46 | – | 27 | 445 |
| CCC(CN1CCCC1)C(=O)c1cc(-c2ccccc2)no1 (single isomer, unassigned; (+)) [(+) form, (+)-3-phenyl-5-[2-(1-pyrrolidinylmethyl)butyryl]isoxazole] | 59 | 78 | 28 | – | 14 | 386 |
